Data published in patent US20210386792A1, “A METHOD FOR INCREASING POPULATION OF SPERMATOGONIAL STEM CELLS” (priority 2018, published 2021).

Legend:
EGR-1 = test: Western blot of EGR-1 expression in LuECs; format: cell-based, mouse; conditions: LuEC
Source text: FIG. 5. GDNF expression in TECs is regulated by CaN-NFAT signaling. a. Immunouorescence images of testis sections immunostained with the stem cell markers DDX4 and Oct4 and DAPI to stain DNA. Testes were harvested from 1-week-old or 4-week-old Euploid or Ts65Dn mice. Quantication of DDX4+ and Oct4+ cells relative to DAPI per high-powered eld (HPF) is shown on the right, ***P<0.0001. Bar=50 μm. Two-way ANOVA test. b. […] Values are mean±s.e.m. n=4. c. Quantication of GDNF levels by ELISA in conditioned media from murine TECs, LuEC and LiEC after 2 ngml-1 FGF-2 treatment in the presence or absence of CsA. Values are mean±s.e.m., n=4. d. H&E-stained cross-sections from testes of age-matched Euploid, Ts65Dn or Ts65Dn mice 5 weeks after implantation with GFP+ TECs isolated from syngeneic wild-type mice (Ts65Dn+GFP+ TECs). Red dotted line encircles mature sperm (yellow arrow) in the lumen of the seminiferous tubules. Immunouorescence images with GFP and DAPI to stain DNA of testis sections from Ts65Dn+GFP+TECs mice. e. Western blot analysis of EGR-1 protein expression in TECs and LuECs untreated or after FGF-2 treatment, expression of constitutively active NFATc1 (caNFATc1) or an empty vector control. Actin was probed as a loading control. f. Quantication of nuclear translocation of EGR1 and NFATc1 in TECs after treatment with conditioned media (CM), 2 ng ml-1 FGF-2±CsA. Values are mean±s.e.m. g. […]

Thy1.2+GFP+ SSCs = test: Colony formation of GFP+ SSCs co-cultured with TECs with added growth factors; format: cell-based, mouse; conditions: Thy1.2+GFP+ cells co-cultured with TECs, factors added to growth media
Procedure: 2D co-cultures were generated by plating 2.7×10^5 cultured GFP^+ SSCs on STO feeder cells 28 or on top of 200 μl of solid matrigel mixture containing TEC (BD bioscience) in serum free medium 28 with exogenous GDNF 10 ng ml^−1 (R&D system), GFR^+ 75 ng ml^−1 (R&D system) and FGF2 1 ng ml^−1 (BD Biosciences). Average GFP^+ SSC colony area was measured and GFP^+ SSC cell number were counted 8 days after plating. Each condition was performed in triplicate.
FIG. 4. a. Quantication of GDNF levels by ELISA in conditioned media from TECs isolated from Fgfr1+/+ or Fgfr1−/− mice. Bar=1 cm. b. Images of testes from busulfan-treated (45 mgkg-1) WT mice 12 weeks post transplantation with PBS(Φ), Fgfr1+/+ TECs or Fgfr1/−/− TECs. Testis weights are indicated on the right (n=4). c. H&E images of testis sections from control (Fgfr1+/+) or endothelialspecic deletion of Fgfr1 (Fgfr1iΔEC/iΔEC) mice at 12 weeks after tamoxifen treatment to induce fgfr1 deletion from ECs. Red stars indicate empty seminiferous tubule. Bar=100 μm. d. Representative bright-eld and GFP images of GFP+ SSCs co-cultured with TECs with the addition of FGF±GDNF at the indicated concentrations after 4 weeks. SSC colony number and size over time are shown on right. e. Immunouorescence images of testis sections from Fgfr1+/+ or Fgfr1iΔEC/iΔEC mice 5 weeks after busulfan treatment at the indicated concentrations. […]

DS-iPS EC = test: GDNF ELISA in conditioned media from Down syndrome iPS-derived ECs; format: cell-based, human; conditions: 2 ng/ml FGF-2
Procedure: Testis, lung, or liver ECs were plated (10,000 cells ml^−1) on 12 well dishes coated with 0.1% gelatin and cultured for 24 hours. Conditioned media was harvested at 24 and 48 hours after FGF-2 (2 ng ml^−1, 20 ng ml^−1 and 50 ng ml^−1) treatment and analyzed by ELISA for GDNF (Promega GDNF Emax immunoassay system, #G7621) following the manufacturer's instruction. Statistics was analyzed using Graph Pad Prism. For quantification of Gdnf mRNA, total RNA was isolated from the cells using Direct-zol RNA MiniPrep (Zymo Research) and reverse transcribed using High Capacity cDNA Reverse Transcription Kit (Appliedbiosystems), according to the manufacturer's instructions. All gene expression levels were normalized to GAPDH mRNA levels.
To generate iPSC lines, either human fibroblasts/stromal cells were transduced with pMXs-based retroviral supernatant with human OCT4, SOX2, KLF4, or MYC as described^30, or mononuclear cells were infected with pHage2-CMV-RTTA-W and pHage-Tet-hSTEMMCA-loxP virus as described^31. All cells were culture on 0.1% gelatin-coated dishes in human endothelial cell medium (Lonza; EGM®-MV Bulletkit) with 50 ng ml^−1 additional VEGF. 500,000 disaggregated single embryonic bodies from human iPSCs were cultured for 48 hours. Non-adherent cells were gently removed and adherent cells were cultured for 1-2 passages. […]

fibroblast growth factor-2 [FGF-2]
EGR-1 expression after FGF-2 treatment (EGR-1): not | SSC colony formation (number and size of colonies) (Thy1.2+GFP+ SSCs): sufficient for SSC maintenance and expansion | GDNF production after FGF2 treatment (DS-iPS EC): relatively modest induction of GDNF
